Assay results published in ChEMBL document CHEMBL3286127, “Aminoadamantanes with persistent in vitro efficacy against H1N1 (2009) influenza A” (J Med Chem, 2014).
Calls of active or inactive are those of the source. No cut-off for these calls is given here.

Columns and labels:
[1] = tested on: Influenza A virus; test: Antiviral activity against Influenza A virus A2/Taiwan/1/64(H2N2) infected in MDCK cells expressing wild type M2 after overnight incubation by fluorescence-based miniplaque assay; type: functional, organism-based
[2] = tested on: Influenza A virus; test: Antiviral activity against Influenza A virus A/Victoria/3/75(H3N2) infected in MDCK cells expressing wild type M2 after overnight incubation by fluorescence-based miniplaque assay; type: functional, organism-based
[3] = tested on: MDCK; test: Cytotoxicity against MDCK cells at 50 uM after 18 hrs; type: cell-based, Canis lupus familiaris; settings: dog
[4] = tested on: Influenza B virus; test: Antiviral activity against Influenza B virus B/Russia/69 infected in MDCK cells at 50 uM; type: functional, organism-based
[5] = tested on: HEK293; type: cell-based; settings: Influenza A virus (A/California/07/2009(H1N1)), 10 uM
[6] = tested on: Bovine parvovirus; test: Antiviral activity against Bovine parvovirus infected in bovine embryonic cells at 50 uM; type: functional, cell-based
[7] = tested on: MDCK; test: Cytotoxicity against MDCK cells at 5 uM after 18 hrs; type: cell-based, Canis lupus familiaris; settings: dog

Compound	EC50 [1]	EC50 [2]	Activity [3]	Activity [4]	Activity [5]	Activity [6]	Activity [7]
CCCCC1(N)C2CC3CC(C2)CC1C3 (centres undefined)	1.5 µM	4 µM	Non-toxic				
CC1(N)C2CC3CC(C2)CC1C3 (centres undefined)	0.5 µM	2 µM	Non-toxic	inactive			
NC1C2CC3CC(C2)CC1C3 (centres undefined)	0.8 µM	3.3 µM	Non-toxic	inactive			
CC(C)CC1(N)C2CC3CC(C2)CC1C3 (centres undefined)	0.4 µM	13 µM	Non-toxic				
CC(N)C12CC3CC(CC(C3)C1)C2 (centres undefined) [RIMANTADINE]	1.6 µM	0.53 µM	Non-toxic				
CCCC1(N)C2CC3CC(C2)CC1C3 (centres undefined)	< 0.24 µM	23 µM	Non-toxic	inactive	63%	inactive	
NC12CC3CC(CC(C3)C1)C2 [AMANTADINE]	0.34 µM	2.77 µM	Non-toxic				
CCC1(N)C2CC3CC(C2)CC1C3 (centres undefined)	0.8 µM	2 µM	Non-toxic	inactive			
NC1(Cc2ccccc2)C2CC3CC(C2)CC1C3 (centres undefined)	0.2 µM	18 µM	Non-toxic				
CCCCCCC1(N)C2CC3CC(C2)CC1C3 (centres undefined)	1.5 µM	1.1 µM					Non-toxic
NC1(c2ccccc2)C2CC3CC(C2)CC1C3 (centres undefined)	0.2 µM	8 µM	Non-toxic				
